Experimental data reported in PubChem BioAssay AID686920 (Broad Institute, 2013).

system: A673 NR0B1-luciferase reporter, viability-normalised luminescence; test: NR0B1 reporter signal reduction in A673 cells – cell-based, luciferase luminescence, cherry-pick, EWS/Fli inhibitor project, dose response (AID 686920)

Compound | AC35
C[C@@H]1CCCCO[C@H](CN(C)Cc2ccc(C(F)(F)F)cc2)[C@H](C)CN([C@H](C)CO)C(=O)c2cc(NC(=O)CCCN(C)C)ccc2O1 | 11.9 µM
O=C(Nc1ccc2c(c1)OCO2)N1C[C@@H]2N[C@H](C1)C2c1ccc(C=Cc2ccccc2)cc1 (some centres undefined) | 19 µM
CC(C)c1ccc(OCc2cccc(C(=O)N/N=C/c3cccnc3)c2)cc1 | 1.03 µM
Cc1cc(C(=O)Nc2ccc3c(c2)C(=O)N(C)[C@@H]2CC[C@H](CC(=O)N[C@H](C)c4ccccc4)O[C@H]2CO3)no1 | 10.2 µM
C[C@@H]1CCCCO[C@H](CN(C)Cc2ccc(C(=O)Nc3ccccc3N)cc2)[C@@H](C)CN([C@@H](C)CO)C(=O)c2cc(NS(=O)(=O)c3ccc(Cl)cc3)ccc2O1 | 6.13 µM
Nc1ccc2oc(-c3cc(Br)ccc3Cl)nc2c1 | 15 µM
C#CCOCCOCCOCCNc1nc(N2CCN(C(=O)CCCCCCCCCCNC(=O)Cn3cc(C[C@@H](C)O)nn3)CC2)nc(N2CCN(C(=O)CCCCCCCCCCNC(=O)[C@H](CO)n3cc(CCCSC)nn3)CC2)n1 | 9.81 µM
COc1cc(-c2coc3c(C(=O)NCc4ccc(C(F)(F)F)cc4)cccc23)ccc1O | 2.21 µM
O=C(O)c1ccccc1C(=O)Nc1ccc(Oc2ccc3ccccc3c2)cc1 | 5.69 µM
CC1=NN(c2ccc(C)cc2)C(=O)/C1=C\C=C\c1ccccc1 | 10.2 µM
Cc1c(CCOC(=O)CC23CC4CC(CC(C)(C4)C2)C3)sc[n+]1CC(=O)c1ccccc1 | 16.9 µM
O=C(C1CC1)N1C[C@@H]2N[C@H](C1)C2c1ccc(/C=C/c2ccccc2)cc1 (some centres undefined) | 26.1 µM
CN(Cc1cnc2nc(N)nc(N)c2n1)c1ccc(C(=O)N[C@@H](CCC(=O)O)C(=O)O)cc1 | < 0.03 µM
Cc1ccc2nc(-c3ccccc3)nn2c1 | 4.49 µM
O=C(/C=C/c1ccc(Cl)cc1Cl)N(Cc1ccc(Cl)cc1)C1CCS(=O)(=O)C1 (centres undefined) | 33.5 µM
Cc1ccc2oc(/N=C(\N)NC(=O)C(C)(C)C)nc2c1 | 0.18 µM
CC1=NN(c2ccccc2)C(=O)/C1=C\C=C\c1ccccc1 | 6.98 µM
CCc1ccc(/C=C2\SC(=S)N(CCCC(=O)N3CCN(C)CC3)C2=O)cc1 | 21.3 µM
C[C@H](CO)N1C[C@H](C)[C@H](CN(C)Cc2ccc(C(=O)Nc3ccccc3N)cc2)Oc2ccc(NC(=O)C3CC3)cc2CC1=O | 37.8 µM
Cc1ccc(S(=O)(=O)Nc2ccc3c(c2)C(=O)N([C@@H](C)CO)C[C@@H](C)[C@@H](CN(C)Cc2ccc(C(=O)Nc4ccccc4N)cc2)O3)cc1 | 6.44 µM
COc1cc(-c2cnc3c(NC=O)cc(-c4cccc(NC(C)=O)c4)cn23)cc(OC)c1OC | 0.298 µM
COc1ccc(NC(=O)c2cc3ccccc3oc2=O)cc1 | 2.99 µM
COc1ccc(C2c3cc4c(cc3OC(NNC(N)=O)C2C)OCO4)cc1 (centres undefined) | 14 µM
C[C@]12CC[C@H](O)C[C@H]1CC[C@@H]1[C@@H]2C[C@@H](O)[C@]2(C)[C@@H](C3=CC(=O)OC3)CC[C@]12O | 1 µM

Compound | AC35
C[C@@H]1CN([C@@H](C)CO)C(=O)c2cc(NS(=O)(=O)c3ccc(F)cc3)ccc2O[C@@H]1CN(C)Cc1ccc(C(=O)Nc2ccccc2N)cc1 | 9.48 µM
C[C@@H]1CN([C@H](C)CO)C(=O)c2cc(C#CCc3ccccc3)cnc2O[C@@H]1CN(C)Cc1cccc(F)c1 | 46.1 µM
O=S(=O)(c1ccc(F)cc1)N1C[C@H]2[C@@H](c3ccccc31)[C@H](CO)N2Cc1ccccc1Cl | 33.7 µM
COC(=O)C[C@@H]1CC[C@@H]2[C@H](COc3ccc(NC(=O)c4cc(C)on4)cc3C(=O)N2C)O1 | 7 µM
COCCCNc1ccn2nc(-c3ccccc3)cc2n1 | 10.1 µM
CCOC(=O)Cc1ccc(NC(=O)c2ccccc2Br)cc1 | 4.18 µM
C[C@H](CO)N1C[C@H](C)[C@H](CN(C)Cc2ccccc2)Oc2ccc(NC(=O)CCCCCC(=O)Nc3ccccc3N)cc2CC1=O | 5.93 µM
COC1C(O)C(C)OC(OC2CCC3(C)C(CCC4C3C(O)CC3(C)C(C5=CC(=O)OC5)CCC43O)C2)C1O (centres undefined) | 0.183 µM
Nc1sc(-c2ccccc2)cc1-c1n[nH]c(=S)n1C1CCCCC1 | 3.67 µM
O=C(NCc1ccc(F)cc1)N1[C@H]2CC[C@@H]1C=C(c1ccc(F)cc1OCc1ccccc1)C2 | 9.93 µM
OCC1OC(n2ccc3c2ncn2ncnc32)C(O)C1O (centres undefined) | 1.01 µM
CCCn1c(C)cc(C(=O)CN2C(=O)c3ccccc3S2(=O)=O)c1C | 1.25 µM
COc1ccc(S(=O)(=O)Nc2ccc3c(c2)C(=O)N([C@H](C)CO)C[C@@H](C)[C@@H](CN(C)CC2CCCCC2)OCCCC[C@H](C)O3)cc1 | 14.2 µM
O=c1c2ccccc2oc2cc(C#CC3(O)CCCCC3)ccc12 | 4.33 µM
CC(=O)c1ccc(N=Nc2ccc(C)cc2)cc1 | 8.92 µM
COC(=O)C[C@@H]1CC[C@@H]2[C@H](COc3ccc(NC(=O)c4ccc(C(F)(F)F)cc4)cc3C(=O)N2C)O1 | 12.1 µM
C(=Cc1cnc2ccccc2n1)c1ccc2c(c1)OCO2 | 1.12 µM
CC(C)=CCC/C(C)=C/CN1C(=O)N(c2ccc(F)cc2)[C@H]2C[C@@H](c3ccccc3)[C@@H](C)[C@@H](C(=O)N3CCOCC3)C[C@H]21 | 7.8 µM
C[C@@H]1CN([C@@H](C)CO)C(=O)c2cccc(NC(=O)Nc3cccc4ccccc34)c2O[C@@H]1CN(C)Cc1ccc(C(=O)Nc2ccccc2N)cc1 | 10.2 µM
CCCNC(=O)N1[C@H](C#N)[C@H](c2ccc(C#Cc3cccc(F)c3)cc2)[C@H]1CO | 8.47 µM
C[C@@H]1CN([C@@H](C)CO)C(=O)Cc2cc(NC(=O)C3CCCCC3)ccc2O[C@H]1CN(C)Cc1ccc(C(=O)Nc2ccccc2N)cc1 | 29.1 µM
N#CC1C=Cc2c(ccc3ccccc23)N1C(=O)c1ccccc1 (centres undefined) | 0.692 µM
COC(=O)CC1(C(=O)OC)Oc2ccc(Br)cc2C(=O)N1c1cccc(Cl)c1Cl (centres undefined) | 15 µM
Cc1ccc(S(=O)(=O)Nc2ccc3c(c2)C(=O)N([C@H](C)CO)C[C@@H](C)[C@@H](CN(C)Cc2ccc(C(=O)Nc4ccccc4N)cc2)O3)cc1 | 9.6 µM

Compound | AC35
CCCCc1c(Cc2ccccc2)ncn1CCc1ccccc1OC | 20.8 µM
COc1ccc(OC)c(/C=C/c2ccnc3ccccc23)c1 | 2.4 µM
Cc1cc(Br)ccc1N=C1C(=O)Nc2ccccc21 | 5.12 µM
COc1ccc(N=C(NN)c2ccc3ccccc3n2)cc1 | 21.8 µM
CCOc1cc(/C=N/Nc2cc(C)nc(-n3nc(C)cc3C)n2)ccc1O | 35.8 µM
COc1ccccc1/C=C1\SC(=S)N(CCC(=O)Nc2cc(C)on2)C1=O | 16.8 µM
C[C@H]1CN([C@@H](C)CO)C(=O)Cc2cc(NC(=O)C3CC3)ccc2O[C@H]1CN(C)S(=O)(=O)c1ccc(Cl)cc1 | 16.1 µM
COc1ccc(S(=O)(=O)N=Nc2c(O)[nH]c3ccccc23)cc1 | 34.7 µM
Cc1ccc(S(=O)(=O)Nc2ccc3c(c2)C(=O)N([C@H](C)CO)C[C@H](C)[C@@H](CN(C)Cc2ccc(C(F)(F)F)cc2)OCCCC[C@H](C)O3)cc1 | 11.5 µM
O=c1cc(-c2ccccc2)oc2ccc3ccccc3c12 | 1.43 µM
CCCCCCCN(c1ccccc1)[C@@H]1C[C@H]2CCCC(=O)N3CC[C@@H](C1)[C@@H]23 | 11.8 µM
Oc1cccc(-c2nnc(-c3cccc(O)c3)nn2)c1 | 7.64 µM
COc1cc(/C=C/C(=O)CC(=O)/C=C/c2ccc(O)c(OC)c2)ccc1O | 7.91 µM
Nc1nc(=S)c2ncn([C@@H]3O[C@H](CO)[C@@H](O)[C@H]3O)c2[nH]1 | 4.88 µM
CN(C)c1ccc(N=Nc2ccc(C(=O)O)cc2)cc1 | 5.73 µM
C[C@@H]1CN([C@H](C)CO)C(=O)c2cc(NC(=O)Nc3ccccc3)ccc2O[C@@H]1CN(C)Cc1ccc(C(=O)Nc2ccccc2N)cc1 | 8.74 µM
C=C(C(=O)c1ccccc1)C(C)C(=C)C(=O)c1ccccc1 | 5.4 µM
CCN1/C(=C/C=C/c2oc3ccc(-c4ccccc4)cc3[n+]2CC)Oc2ccc(-c3ccccc3)cc21 | 2.49 µM
CN(C)c1ccc(N=Nc2ccccc2Br)cc1 | 21.3 µM
COC(=O)COc1ccc(-c2nccc(-c3ccccn3)n2)cc1 | 1.5 µM
Cc1ccc(OCCNC(=O)c2cccc(S(=O)(=O)NCc3ccccc3)c2)cc1 | 3.98 µM
Cc1ccsc1/C=N/Nc1cccc(C(=O)O)c1 | 0.832 µM
Cc1cc(C)cc(N2C(=O)NC(=O)/C(=C\C=C\c3ccco3)C2=O)c1 | 4.31 µM
CC(C)c1oc(=O)cc2c1[C@@H](O)[C@H]1OC(=O)[C@@]3(C)CC[C@@H](O)[C@@]2(C)C13 (some centres undefined) | 4.21 µM

Compound | AC35
COC(=O)c1ccccc1-c1c2ccc(=N)cc-2oc2cc(N)ccc12 | 2.83 µM
CCCCNC1=CC(=O)C(=O)c2ccccc21 | 6.17 µM
CCN(CC)C(=O)CN1C(=O)C(=O)c2ccccc21 | 42 µM
CN1C/C(=C/c2ccsc2)C(=O)/C(=C/c2ccsc2)C1 | 9.82 µM
CC1(C)N=C(N)N=C(N)N1c1ccc(CCCCc2ccccc2)cc1 | 2.72 µM
C[C@@H]1O[C@@H](O[C@H]2C[C@@H](O)[C@]3(CO)[C@H]4[C@H](O)C[C@]5(C)[C@@H](C6COC(=O)C6)CC[C@]5(O)[C@@H]4CC[C@]3(O)C2)[C@H](O)[C@H](O)[C@H]1O (some centres undefined) | 1.24 µM
Nc1ccc(Oc2ccccc2-c2ccccc2)cc1 | 2.49 µM
CN(C[C@H]1N[C@@H](CO)[C@@H]1c1ccc(C2=CCCC2)cc1)C(=O)c1cccc(F)c1 | 3.48 µM
CCOC(=O)Cc1csc(NC(=S)NC(=O)c2ccc(C)cc2)n1 | 0.265 µM
C/C(=N\Nc1cccc2cccnc12)c1ccccn1 | 19 µM
C[C@@H]1CN([C@@H](C)CO)S(=O)(=O)c2ccc(C#CCN(C)C)cc2O[C@@H]1CN(C)Cc1ccncc1 | 60.2 µM
CCC(C)Cn1c(O)cc2nn(-c3nc4ccccc4s3)c(=O)c-2c1C (centres undefined) | 1.57 µM
C[C@]12CCC3C(CCC4=CC(O)CC[C@@]43/C=N/O)C1(O)CCC2C1=CC(=O)OC1 (some centres undefined) | 0.529 µM
COc1ccc(/C=C2/SC(=S)N(CCCC(=O)Nc3ccccc3C(=O)O)C2=O)cc1 | 5.83 µM
CN(C[C@H]1N[C@@H](CO)[C@@H]1c1ccc(C2=CCCC2)cc1)C(=O)c1ccc(F)cc1 | 5.59 µM
COc1ccc(-c2cnc3c(NC=O)cc(-c4ccccc4OC)cn23)cc1OC | 0.065 µM
O=c1ccc2ccccc2c2ccccc12 | 8.15 µM
O=C1NC(=S)NC(=O)C1=Cc1cccn1-c1ccc(O)cc1 | 19.9 µM
CN(C)CC1CCC/C(=C\c2ccc(OC(=O)c3ccc(Cl)cc3)cc2)C1=O (centres undefined) | 5.76 µM
COc1ccc2oc(-c3ccccc3)cc(=O)c2c1 | 8.22 µM
C[C@@H]1CN([C@H](C)CO)S(=O)(=O)c2ccc(C#CC3CC3)cc2O[C@@H]1CN(C)Cc1ccccc1F | 30.4 µM
COc1ccc(/C=C2\SC(=S)N(CCCC(=O)NC3CCCC3)C2=O)cc1OC | 38.5 µM
